According to ChEMBL document CHEMBL6103611, “Structure and Dynamics of Macrophage Infectivity Potentiator Proteins from Pathogenic Bacteria and Protozoans Bound to Fluorinated Pipecolic Acid Inhibitors” (J Med Chem, 2025):
Activity calls are given as the source filed them. The rule behind the calls is not given here.

How the values were obtained:
[1] = biological target: T1, Peptidyl-prolyl cis-trans isomerase (Burkholderia pseudomallei (strain K96243)) (UniProt Q63J95)
T1 sequence (whole entry): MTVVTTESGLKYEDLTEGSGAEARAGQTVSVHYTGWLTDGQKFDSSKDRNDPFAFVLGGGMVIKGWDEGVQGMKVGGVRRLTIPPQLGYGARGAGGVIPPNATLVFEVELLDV

[2] = biological target: T2, Macrophage infectivity potentiator (Trypanosoma cruzi) (UniProt Q09734)
T2 sequence (whole entry): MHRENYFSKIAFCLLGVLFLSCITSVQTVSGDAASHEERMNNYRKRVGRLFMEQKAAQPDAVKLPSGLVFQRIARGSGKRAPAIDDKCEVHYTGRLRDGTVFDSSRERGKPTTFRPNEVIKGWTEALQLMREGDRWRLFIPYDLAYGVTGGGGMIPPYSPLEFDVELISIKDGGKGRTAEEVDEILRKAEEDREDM

[3] = biological target: Outer membrane protein MIP (Legionella pneumophila) (UniProt Q70YI1)
[4] = biological target: Outer membrane protein MIP (Legionella pneumophila) (UniProt Q70YI1); remark: listed apart in the source
[5] = biological target: T1, Peptidyl-prolyl cis-trans isomerase (Burkholderia pseudomallei (strain K96243)); remark: listed apart in the source
[6] = biological target: Outer membrane protein MIP (Legionella pneumophila) (UniProt Q70YI1); remark: listed apart in the source
[7] = biological target: T1, Peptidyl-prolyl cis-trans isomerase (Burkholderia pseudomallei (strain K96243)); remark: listed apart in the source
[8] = biological target: Outer membrane protein MIP (Legionella pneumophila) (UniProt Q70YI1); remark: listed apart in the source
[9] = biological target: Outer membrane protein MIP (Legionella pneumophila) (UniProt Q70YI1); remark: listed apart in the source
[10] = biological target: T2, Macrophage infectivity potentiator (Trypanosoma cruzi); remark: listed apart in the source
[11] = biological target: Outer membrane protein MIP (Legionella pneumophila) (UniProt Q70YI1); remark: listed apart in the source
[12] = biological target: Outer membrane protein MIP (Legionella pneumophila) (UniProt Q70YI1); remark: listed apart in the source
[13] = biological target: Outer membrane protein MIP (Legionella pneumophila) (UniProt Q70YI1); remark: listed apart in the source
[14] = biological target: T2, Macrophage infectivity potentiator (Trypanosoma cruzi); remark: listed apart in the source

Compound | Time [1] [nanoseconds] | Time [2] [nanoseconds] | Time [3] [nanoseconds] | Time [4] [nanoseconds] | Activity [5] | Activity [6] | Activity [7] | Activity [8] | Activity [9] | Activity [10] | Activity [11] | Activity [12] | Activity [13] | Activity [14]
CC(C)C[C@H](NC(=O)[C@@H]1CCCCN1S(=O)(=O)Cc1ccc(F)cc1)C(=O)NCc1cccnc1 | 7.6 | 13.8 | 27.9 | 8.8 | Active | Active | Active | Active | Active | Active | Active | Active | Active | –
O=C(NCc1cccnc1)[C@H](Cc1ccc(F)cc1)NC(=O)[C@@H]1CCCCN1S(=O)(=O)Cc1ccc(F)cc1 | 7.8 | 14.5 | 25.4 | 9.7 | – | Active | Active | Active | Active | Active | Active | Active | Active | Active
